Measurements as given in ChEMBL document CHEMBL3045277, “Synthesis and biological activity of novel 1H-1,4-diazepines containing benzene sulfonyl piperazine moiety” (2011).

How the values were obtained:
Type in all cases: functional
[1] = test system: Staphylococcus aureus; experiment: Antibacterial activity against Staphylococcus aureus by cup-plate method
[2] = test system: Candida albicans; experiment: Antifungal activity against Candida albicans by cup-plate method
[3] = test system: Aspergillus niger; experiment: Antifungal activity against Aspergillus niger by cup-plate method
[4] = test system: Klebsiella pneumoniae; experiment: Antibacterial activity against Klebsiella pneumoniae by cup-plate method
[5] = test system: Metaphire posthuma; experiment: Antihelminthic activity against Metaphire posthuma assessed as time of occurrence of paralysis
[6] = test system: Metaphire posthuma; experiment: Antihelminthic activity against Metaphire posthuma assessed as time of occurrence of death

In the case of `CC(=O)Nc1ccc(S(=O)(=O)N2CCN(CCCC3C(c4ccccc4)=NCCN=C3c3ccccc3)CC2)cc1`, the “inhibition zone (IZ)” value [1] is reported as 17 mm, the “inhibition zone (IZ)” value [2] is reported as 19 mm and the “inhibition zone (IZ)” value [3] is reported as 18 mm. The “inhibition zone (IZ)” value [4] was 19 mm, the Time [5] was 93 min and the Time [6] was 110 min.

`CC(=O)Nc1ccc(S(=O)(=O)N2CCN(CCCC3C(C)=NCCN=C3c3ccccc3)CC2)cc1` (stereo unspecified) was tested, and the “inhibition zone (IZ)” value [1] was 20 mm, the “inhibition zone (IZ)” value [2] was 20 mm and the “inhibition zone (IZ)” value [3] was 20 mm. For the same compound, the “inhibition zone (IZ)” value [4] was 19 mm, the Time [5] was 91 min and the Time [6] was 111 min.

In the case of `CC(=O)Nc1ccc(S(=O)(=O)N2CCN(CCCC3C(C)=NCCN=C3C)CC2)cc1`, the “inhibition zone (IZ)” value [1] is reported as 19 mm, the “inhibition zone (IZ)” value [2] is reported as 21 mm and the “inhibition zone (IZ)” value [3] is reported as 19 mm. The “inhibition zone (IZ)” value [4] was 21 mm, the Time [5] was 92 min and the Time [6] was 103 min.

Work on `C1CNCCN1.C1CNCCN1.C1CNCCN1.O.O=C(O)CC(O)(CC(=O)O)C(=O)O.O=C(O)CC(O)(CC(=O)O)C(=O)O` [PIPERAZINE CITRATE] yielded a Time [5] of 100 min and a Time [6] of 125 min.

For `CC(=O)Nc1ccc(S(=O)(=O)N2CCN(CCCC3C(=O)NCCN=C3C)CC2)cc1` (stereo unspecified), the “inhibition zone (IZ)” value [1] was 16 mm, the “inhibition zone (IZ)” value [2] was 16 mm and the “inhibition zone (IZ)” value [3] was 17 mm. The “inhibition zone (IZ)” value [4] was 17 mm, the Time [5] was 102 min and the Time [6] was 119 min.

For `Cc1cc(C2CCCCC2)n(O)c(=O)c1.NCCO` [CICLOPIROX OLAMINE], the “inhibition zone (IZ)” value [2] was 24 mm and the “inhibition zone (IZ)” value [3] was 22 mm.

With `CC(=O)Nc1ccc(S(=O)(=O)N2CCN(CCCC3C(=O)NCCNC3=O)CC2)cc1` the “inhibition zone (IZ)” value [1] was 13 mm, the “inhibition zone (IZ)” value [2] was 13 mm and the “inhibition zone (IZ)” value [3] was 15 mm. The “inhibition zone (IZ)” value [4] was 15 mm, the Time [5] was 103 min and the Time [6] was 122 min.

In the case of `O=C(O)c1cn(C2CC2)c2cc(N3CCNCC3)c(F)cc2c1=O` [CIPROFLOXACIN], the “inhibition zone (IZ)” value [1] is reported as 24 mm and the “inhibition zone (IZ)” value [4] is reported as 26 mm.
